Experimental findings from PMC11654702, “Mechanisms underlying modulation of human GlyRα3 by Zn^2+ and pH” (Science Advances, 2024) are described below.

The target in one data set is T1, GlyRα3 (Homo sapiens, UniProt O75311).
T1 construct: gene GLRA3; full-length, C-terminal thrombin site and 8x histidine tag, homopentamer in peptidisc (cryo-EM); full-length in Xenopus oocytes (TEVC)
T1 sequence (O75311 34-464): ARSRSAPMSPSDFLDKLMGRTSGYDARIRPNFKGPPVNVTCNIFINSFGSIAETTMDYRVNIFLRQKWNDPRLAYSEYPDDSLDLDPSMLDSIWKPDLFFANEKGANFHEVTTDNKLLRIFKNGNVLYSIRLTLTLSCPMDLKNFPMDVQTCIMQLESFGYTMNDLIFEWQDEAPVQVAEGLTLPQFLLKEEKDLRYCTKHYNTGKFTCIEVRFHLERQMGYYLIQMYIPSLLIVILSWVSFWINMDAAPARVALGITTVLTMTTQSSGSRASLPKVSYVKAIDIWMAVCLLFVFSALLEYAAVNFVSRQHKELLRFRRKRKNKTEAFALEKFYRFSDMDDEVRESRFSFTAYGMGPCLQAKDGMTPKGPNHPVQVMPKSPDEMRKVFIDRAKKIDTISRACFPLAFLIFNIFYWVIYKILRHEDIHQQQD
Nature of the data set: cryo-EM structures with glycine density; EC50 by two-electrode voltage clamp in Xenopus oocytes. Type of data set: cell-based.

Data set [1] concerns the molecule itself. Description: cryo-EM structure; GlyRα3 in peptidisc, 0.3 to 1 mg/ml, 20 mM Hepes, 150 mM NaCl, pH 8.0 or pH 6.4; 0.1 or 1 mM glycine, without or with 1 or 100 μM ZnCl2; final maps refined with C5 symmetry.

`NCC(=O)O` [glycine] displayed an EC50 on GlyRα3 of 213 ± 13 µM.

B1: full-length human GlyRα3 (receptor, UniProt O75311 34-464, looked up)
chain: T1 sequence (O75311 34-464)
notes: Glycine receptor subunit alpha-3, human, UniProt O75311, full-length codon-optimized GLRA3 gene; last residue printed as Asp431 on mature numbering; ICD Lys312-Arg385 not modelled in the maps; Homopentamer reconstituted in peptidisc (NSP peptide scaffold); the models are numbered without it; also called hGlyRα3; glycine receptor α3; source: Sf9 cells (baculovirus, pFastBac1), purified (DDM …)
With B1, the “stoichiometry N” value in data set [1] amounted to 5.
